From patent US20240238243A1, “METHODS AND COMPOSITIONS FOR TREATMENT OF HEART FAILURE WITH PRESERVED EJECTION FRACTION” (Northwestern University, priority 2023, published 2024)

Key:
protein O-GlcNAcylation = test: Immunoblot of protein O-GlcNAcylation after intraperitoneal 5S-GlcNHex; format: in vivo, mouse
Protocol: Protein extracts from frozen mouse hearts, isolated cardiomyocytes, fibroblasts, endothelial cells, and HUVECs were prepared by lysis in ice-cold RIPA buffer (150 mM NaCl, 25 mM Tris-HCl pH 7.4, 1% NP-40, 1% sodium deoxycholate, 0.1% SDS) containing protease inhibitors. For analyses of O-GlcNAcylation, 200 μg/ml of PUGNAC (Sigma-Aldrich) was added to the RIPA buffer. Proteins were separated by sodium dodecyl sulfate-polyacrylamide gel electrophoresis (SDS-PAGE) on 8 or 10% polyacrylamide gels and transferred to nitrocellulose membranes. Membranes were incubated with the following primary antibodies overnight, before the addition of HRP-conjugated secondary antibodies: HK1 (2024, Cell Signaling Technology); HK2 (2867, Cell Signaling Technology); GAPDH (60004-1-Ig, Proteintech); FLAG (F1804, Sigma-Aldrich); alpha-tubulin (66031-1-Ig, Proteintech); ATP synthase C (ab181243, Abcam); Phospho-AMPKα (Thr172) (4188, Cell Signaling Technology); AMPKα (2603, Cell Signaling Technology); GFPT1 (14132-1-Ig, Proteintech); RPN1 (12894-1-AP, Proteintech); RPN2 (10576-1-AP, Proteintech); DDOST (14916-1-AP, Proteintech); GFP (66002-1-Ig, Proteintech), O-Linked N-Acetylglucosamine (ab2739, Abcam); OGT (11576-2-AP, Proteintech); OGA (66033-1-Ig, Proteintech). The presence of target protein was visualized using Super Surgical Western Pico ECL substrate (Pierce). Quantification of the western blotting images was done using ImageJ (NIH).

OGT = biological target: T1, OGT (Mus musculus, UniProt Q8CGY8); conditions: Liu et al., 2018; cited from earlier work
T1 sequence (Q8CGY8 2-1046 limits assumed): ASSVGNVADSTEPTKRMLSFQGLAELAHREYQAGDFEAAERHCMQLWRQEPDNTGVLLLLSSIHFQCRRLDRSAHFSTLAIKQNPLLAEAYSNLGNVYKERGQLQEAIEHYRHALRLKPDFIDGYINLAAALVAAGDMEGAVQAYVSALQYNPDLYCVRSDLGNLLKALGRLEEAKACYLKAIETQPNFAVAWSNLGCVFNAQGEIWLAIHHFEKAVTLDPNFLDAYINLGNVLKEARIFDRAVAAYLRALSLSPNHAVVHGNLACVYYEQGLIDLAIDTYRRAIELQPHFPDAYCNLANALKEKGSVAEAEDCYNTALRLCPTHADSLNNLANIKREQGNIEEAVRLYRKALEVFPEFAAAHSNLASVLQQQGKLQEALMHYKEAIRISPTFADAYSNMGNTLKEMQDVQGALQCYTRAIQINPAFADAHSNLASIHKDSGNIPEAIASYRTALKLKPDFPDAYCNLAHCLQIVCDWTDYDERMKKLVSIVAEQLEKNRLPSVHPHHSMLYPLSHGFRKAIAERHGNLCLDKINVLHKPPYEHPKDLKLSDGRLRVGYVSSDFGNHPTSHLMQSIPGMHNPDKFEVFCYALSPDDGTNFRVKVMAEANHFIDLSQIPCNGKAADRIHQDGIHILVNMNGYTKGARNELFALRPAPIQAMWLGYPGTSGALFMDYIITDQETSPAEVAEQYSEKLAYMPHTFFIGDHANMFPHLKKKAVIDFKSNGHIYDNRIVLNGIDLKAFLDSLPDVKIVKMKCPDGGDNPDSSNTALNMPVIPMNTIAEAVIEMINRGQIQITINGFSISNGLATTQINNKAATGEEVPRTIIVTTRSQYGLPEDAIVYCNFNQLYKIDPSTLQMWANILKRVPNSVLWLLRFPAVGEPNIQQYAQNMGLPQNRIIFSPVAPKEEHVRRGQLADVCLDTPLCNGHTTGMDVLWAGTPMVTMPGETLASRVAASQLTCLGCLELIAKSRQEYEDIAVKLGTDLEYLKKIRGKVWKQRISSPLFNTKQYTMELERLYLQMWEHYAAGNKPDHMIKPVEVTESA

[1] = tested on: C57BL/6J mice treated with HFD_L-NAME; test: HFD_L-NAME HFpEF mouse model: echocardiography, heart weight, treadmill exercise test; format: in vivo
Text: HKΔE1HK1/Δ^E1HK1 (ΔE1HK1) and HK1^WT/WT wild-type (WT) control mice were generated by the Northwestern Mutagenesis and Transgenic core (De Jesus et al., 2022). Briefly, guide RNAs (gRNAs) were designed to induce a double-strand break (DSB) near the 5′ ATG start codon of HK1 in exon 1, and a DNA template containing an M-DYKDDDDK (Methionine-FLAG-tag) sequence with flanking homology arms to the HK1 gene near exon 1 was introduced into fertilized zygotes and implanted into surrogate mice. […] Mouse's genetic background is C57BL/6J. Tie2-Tet-OGA mice are generous gifts from Dr. Dillmann and Dr. Makino (Makino etal., 2015). Mice were maintained in the barrier facility at Northwestern University under specific pathogen-free conditions under the Federal and University guidelines and protocols approved by Institutional Animal Care and Use Committee (IACUC) with 12 hr light and 12 hr dark cycles and received normal chow (NC). Male and female ΔE1HK1 mice were used at 8-40 weeks of age. 8-week-old ΔE1HK1 male mice were fed HFD consisting of 60% fat, 20% protein, and 20% carbohydrates for 20 weeks. To produce the HFpEF mice model, C57BL/6J and Tie2-Tet-OGA mice were fed HFD and 0.5 g/L ofN.-Nitro-L-arginine methyl ester (LNAME, Sigma-Aldrich) for 8-15 weeks. For the induction of OGA overexpression, 0.5 g/L of DOX in drinking water was administered to Tie2-Tet-OGA mice until they were sacrificed. All animal studies were approved by the IACUC at Northwestern University and were performed in accordance with guidelines from the National Institutes of Health.
Mice were anesthetized using isoflurane via a nasal cone, the chest was shaved, and the temperature of the mice was maintained at 37° C. The heart rate was continually monitored. Transthoracic echocardiography was performed using a VisualSonics Vevo 2100 system equipped with an MS400 transducer (FUJIFILM). LVEF and other indices of systolic function and thickness of LV walls were obtained from short-axis M-mode scans at the midventricular level, as indicated by the presence of papillary muscles. Apical four-chamber views were obtained for diastolic function measurements using pulsed-wave and tissue doppler imaging at the level of the mitral valve. During echocardiogram acquisition, isoflurane was maintained in 1.0-1.5% to maintain a heart rate in the range of 400-450 beats per min. All parameters were measured at least three times, and means are presented.
The exercise exhaustion test was performed as previously described (Schiattarella et al., 2019). After three days of acclimatization to treadmill exercise, an exhaustion test was performed in the experimental groups of mice. Mice ran uphill (20°) on the treadmill (Columbus Instruments) starting at a warm-up speed of 5 m/min for 3 min after which speed was increased to 14 m/min for 2 min. Every subsequent 2 min, the speed was increased by 2 m/min until the mouse was exhausted. Exhaustion was defined as the inability of the mouse to return to running within 10 s of direct contact with an electric-stimulus grid. Running time was measured and running distance calculated.

ECs from ΔE1HK1 mice = test: Tube formation assay in isolated ECs from ΔE1HK1 mice treated with ST045849; format: cell-based, mouse; conditions: 20 μM, FIGS. 7H and 7I
Protocol: Endothelial cells (ECs) were isolated from mouse hearts as previously described (Luo et al., 2016; van Beijnum et al., 2008). Briefly, dissected mouse heart was minced and incubated with PBS containing 2% fetal bovine serum (FBS), 1 mg/ml collagenase II (Worthington), and 0.6 U/ml dispase II (Sigma-Aldrich) for 30 mins at 37° C. 7.5 μg/ml of DNase I (Sigma-Aldrich) was added to the digested hearts and additional incubation for 30 minutes was performed. The digested material was filtered through 40 μm cell strainer, then incubated with biotinylated anti-CD45 antibody (Invitrogen) and depleted of CD45 positive cells using EasySep Mouse Streptavidin (STEMCELL technologies) as described in the manufacture's protocol. […]
The formation of tube networks was assessed as described before (Das et al., 2018). […] Following an 18 hour-incubation, tube networks from each biological replicate were analyzed in at least three random fields by light microscopy. The number of branch points (junctions), segments and meshes, and total length of tubule networks (total length of branching) were quantified by Fiji software (Angiogenesis Analyzer).

HUVECs = test: Tube formation assay in HUVECs treated with tunicamycin; format: cell-based, human; conditions: HUVECs, 0, 30, 50, and 100 nM, FIG. 6P
Protocol: The formation of tube networks was assessed as described before (Das et al., 2018). HUVECs and isolated ECs were seeded at 20,000 and 45,000cells per well in a 96-well plate coated with […] Matrigel (Fisher Scientific) or Cultrex (R & D Systems) reduced growth factor basement membrane matrix. The cells were treated with EGM-2 medium containing tunicamycin (Sigma-Aldrich) or ST045849 (Sigma-Aldrich) wherever mentioned. Following an 18 hour-incubation, tube networks from each biological replicate were analyzed in at least three random fields by light microscopy. The number of branch points (junctions), segments and meshes, and total length of tubule networks (total length of branching) were quantified by Fiji software (Angiogenesis Analyzer).

[2] = tested on: protein N-glycosylation in HUVEC; test: Lectin blot with ConA-HRP of HUVEC treated with tunicamycin (dose-curve); format: cell-based, human; conditions: preliminary dose-curve experiments, FIG. 6M
Protocol: HUVECs were purchased from Lonza and grown in EGM2 media (Lonza). HEK293T cells were purchased from ATCC and cultured in DMEM (Corning) with 10% FBS (Bio-Techne Sales Corp.). All cells were maintained in a 37° C. incubator with 5% CO2 and were 70% to 90% confluent when collected for analyses.
Nitrocellulose membranes with blotted proteins were blocked with PBS containing 2% Tween 20 for 2 minutes at room temperature. They were rinsed with PBS twice, then incubated with 1 μg/ml of ConA-HRP (Sigma-Aldrich) in PBS containing 0.05% Tween 20, 1 mM CaCl2), 1 mM MnCl2, and 1 mM MgCl2 for 16 hours at room temperature avoiding exposure to the light. The presence of proteins conjugated with the lectin was visualized using Super Surgical Western Pico ECL substrate (Pierce). Quantification of the images was done using ImageJ (NIH).

[3] = tested on: genes related to UPR in HUVEC; test: mRNA levels of genes related to UPR (Xbp1s, Hspa5) in HUVEC treated with tunicamycin; format: cell-based, human; conditions: FIGS. 6N and 6O
Protocol: RNA was isolated from cells or heart samples using RNA-STAT60 (Tel-Test), and reverse transcribed with Taqman Reverse Transcription Reagents (Invitrogen) according to manufacturers' instructions. Quantification of relative gene expression was done using Fast SYBR Green Master Mix (Applied Biosystems) and run on 7500 Fast Real-Time PCR system (Applied Biosystems). The relative gene expression was determined using differences in Ct values between the gene of interest and house-keeping control genes, which are Actb, Hprt1, and/or 18S, depending on the experiment.

[4] = isolated ECs, intraperitoneal, dose dependency study, FIG. 9A
[5] = single intraperitoneal injection of 50 mg/kg, FIG. 9M
[6] = 30 mg/kg every 48 hours for 10 weeks following 5 weeks of HFD_L-NAME
[7] = 50 mg/kg for 3 weeks following 5 weeks of HFD_L-NAME
[8] = 20 and 30 mg/kg every 48 hours for 10 weeks following 5 weeks of HFD_L-NAME

What does the source list for CCCCCC(=O)N[C@H]1C(O)S[C@H](CO)[C@@H](O)[C@@H]1O (stereo partly drawn) [5S-GlcNHex, 2-deoxy-2-N-hexanamide-5-thio-D-glucopyranoside]?
dose at which reduction of protein O-GlcNAcylation reached a plateau (protein O-GlcNAcylation; [4]): 30 mg/kg; dose that initiated the reduction of protein O-GlcNAcylation (protein O-GlcNAcylation; [4]): 20 mg/kg; protein O-GlcNAcylation in various organs (protein O-GlcNAcylation; single intraperitoneal injection of 50 mg/kg, C57BL6/J mice): effectively curtailed; time after which protein O-GlcNAcylation returns to baseline (protein O-GlcNAcylation; [5]): 72 h; time over which protein O-GlcNAcylation is reduced (protein O-GlcNAcylation; [5]): 48 h; protein O-GlcNAcylation in ECs in vivo (protein O-GlcNAcylation; summary statement): successfully reduces; in vivo efficacy among OGT inhibitors (OGT): significant in vivo efficacy; increased E/A ratio ([1]; 20 mg/kg every 48 hours for 10 weeks following 5 weeks of HFD_L-NAME): reversed; exercise capacity (treadmill test) [1, 6]: significant improvement; increased E/A ratio [1, 6]: reversed; EF [1, 7]: no discernable effects; cardiac hypertrophy as indicated by PWTd [1, 7]: ameliorated; cardiac hypertrophy as indicated by heart weights [1, 7]: ameliorated; decreased e' [1, 7]: substantially restored; increased E/A [1, 7]: substantially restored; increased E/e' [1, 7]: substantially restored; increased LA area [1, 7]: substantially restored; HFpEF phenotype ([1]; 50 mg/kg, FIGS. 9M-9X): reverses the HFpEF phenotype; EF [1, 8]: no significant changes; LV diameter in systole (LVDs) [1, 8]: no significant changes; LVDd [1, 8]: no significant changes; fraction shortening (FS) [1, 8]: no significant changes; increased LA sizes [1, 8]: tendency to decrease; increased heart weights [1, 8]: tendency to decrease; HFpEF phenotype ([1]; summary statement): reversal of the HFpEF phenotype

Which “tube formation: number of junctions” value (ECs from ΔE1HK1 mice) does the source give for O=C(O)C1CC(=O)N(CCC23CC4CC(CC(C4)C2)C3)C(=Nc2ccc(Cl)cc2)S1 (stereo not shown) [ST045849] here?
Its value is “significant enhancement”.

What about the “tube formation: total length of branching” value (ECs from ΔE1HK1 mice) of the same compound?
Its value is “significant enhancement”.

With tunicamycin as the compound, how does the “tube formation (number of junctions, total length of branching)” value (HUVECs) read?
Its value is “no significant effects”.

And the “concentration at which reduced protein N-glycosylation was confirmed” value [2]?
The value was 20 nM.

What about the “concentration at which reduction of protein N-glycosylation reaches plateau” value [2] of the same compound?
The value was 50 nM.

What about the “mRNA levels of genes related to UPR” value [3] of the same compound?
The value was “acted in the same manner as observed in N-glycosylation experiments”.
